Entries after “also recorded” stand apart in the source; their conditions may differ.
T1: caspase-9 activation by the soluble Apaf-1 fragment (Homo sapiens, UniProt O14727)
T1 construct: Leu-Glu-His6 (C); made in house; host or cells: Escherichia coli BL21(DE3), pET29 (both proteins)
T1 sequence (O14727 1-591): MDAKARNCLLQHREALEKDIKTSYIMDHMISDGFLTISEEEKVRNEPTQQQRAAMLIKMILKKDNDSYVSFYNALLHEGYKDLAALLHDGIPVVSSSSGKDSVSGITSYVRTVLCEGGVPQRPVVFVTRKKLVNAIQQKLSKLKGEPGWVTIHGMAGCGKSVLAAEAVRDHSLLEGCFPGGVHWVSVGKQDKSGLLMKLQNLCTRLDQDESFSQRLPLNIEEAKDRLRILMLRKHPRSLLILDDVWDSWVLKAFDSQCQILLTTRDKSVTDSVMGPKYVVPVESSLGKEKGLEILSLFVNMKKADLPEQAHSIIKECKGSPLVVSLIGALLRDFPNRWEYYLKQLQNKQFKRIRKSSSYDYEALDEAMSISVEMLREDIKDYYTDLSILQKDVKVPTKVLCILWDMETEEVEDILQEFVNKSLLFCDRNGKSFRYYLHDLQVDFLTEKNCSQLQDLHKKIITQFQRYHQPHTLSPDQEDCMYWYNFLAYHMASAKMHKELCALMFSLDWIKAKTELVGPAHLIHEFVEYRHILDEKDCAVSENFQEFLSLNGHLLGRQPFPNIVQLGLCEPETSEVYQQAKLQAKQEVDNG
T1 sequence (P55211 1-315 partner limits assumed): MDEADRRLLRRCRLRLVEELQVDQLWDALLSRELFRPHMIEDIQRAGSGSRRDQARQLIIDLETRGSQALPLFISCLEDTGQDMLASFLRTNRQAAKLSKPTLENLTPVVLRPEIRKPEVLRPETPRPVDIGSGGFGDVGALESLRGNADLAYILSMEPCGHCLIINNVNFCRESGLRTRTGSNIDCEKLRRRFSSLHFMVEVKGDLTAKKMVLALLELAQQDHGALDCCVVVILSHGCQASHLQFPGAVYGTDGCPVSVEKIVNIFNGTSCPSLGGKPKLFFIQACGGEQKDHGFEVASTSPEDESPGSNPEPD
T1 sequence (P55211 331-416 partner limits assumed): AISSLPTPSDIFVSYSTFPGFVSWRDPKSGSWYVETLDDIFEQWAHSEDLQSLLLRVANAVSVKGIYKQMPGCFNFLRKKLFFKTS

T2: soluble Apaf-1 fragment (residues 1-591) (Homo sapiens, UniProt O14727)
T2 construct: Leu-Glu-His6 (C); made in house; host or cells: Escherichia coli BL21(DE3), pET29
T2 sequence (O14727 1-591): T1 sequence (O14727 1-591)

B1: 1-591: soluble human Apaf-1 fragment, residues 1-591 (SEQ ID NO: 1), expressed in E. coli BL21(DE3) with C-terminal Leu-Glu-His6 (protein, listed as Homo sapiens)
chain: T1 sequence (O14727 1-591)
modifications: C-terminal Leu-Glu-His6 tag
B2: Full Length Apaf-1: full-length (ca. 140-kilodalton) human Apaf-1 protein expressed in E. coli (protein, listed as Homo sapiens)
chain: T1 sequence (O14727 1-591)
B3: 94-591: recombinant Apaf-1 fragment, residues 94-591 of SEQ ID NO: 1 (protein, listed as Homo sapiens)
chain: VSSSSGKDSVSGITSYVRTVLCEGGVPQRPVVFVTRKKLVNAIQQKLSKLKGEPGWVTIHGMAGCGKSVLAAEAVRDHSLLEGCFPGGVHWVSVGKQDKSGLLMKLQNLCTRLDQDESFSQRLPLNIEEAKDRLRILMLRKHPRSLLILDDVWDSWVLKAFDSQCQILLTTRDKSVTDSVMGPKYVVPVESSLGKEKGLEILSLFVNMKKADLPEQAHSIIKECKGSPLVVSLIGALLRDFPNRWEYYLKQLQNKQFKRIRKSSSYDYEALDEAMSISVEMLREDIKDYYTDLSILQKDVKVPTKVLCILWDMETEEVEDILQEFVNKSLLFCDRNGKSFRYYLHDLQVDFLTEKNCSQLQDLHKKIITQFQRYHQPHTLSPDQEDCMYWYNFLAYHMASAKMHKELCALMFSLDWIKAKTELVGPAHLIHEFVEYRHILDEKDCAVSENFQEFLSLNGHLLGRQPFPNIVQLGLCEPETSEVYQQAKLQAKQEVDNG
B4: 1-469: recombinant Apaf-1 fragment, residues 1-469 of SEQ ID NO: 1 (protein, listed as Homo sapiens)
chain: MDAKARNCLLQHREALEKDIKTSYIMDHMISDGFLTISEEEKVRNEPTQQQRAAMLIKMILKKDNDSYVSFYNALLHEGYKDLAALLHDGIPVVSSSSGKDSVSGITSYVRTVLCEGGVPQRPVVFVTRKKLVNAIQQKLSKLKGEPGWVTIHGMAGCGKSVLAAEAVRDHSLLEGCFPGGVHWVSVGKQDKSGLLMKLQNLCTRLDQDESFSQRLPLNIEEAKDRLRILMLRKHPRSLLILDDVWDSWVLKAFDSQCQILLTTRDKSVTDSVMGPKYVVPVESSLGKEKGLEILSLFVNMKKADLPEQAHSIIKECKGSPLVVSLIGALLRDFPNRWEYYLKQLQNKQFKRIRKSSSYDYEALDEAMSISVEMLREDIKDYYTDLSILQKDVKVPTKVLCILWDMETEEVEDILQEFVNKSLLFCDRNGKSFRYYLHDLQVDFLTEKNCSQLQDLHKKIITQFQRYHQ

Legend:
[1] = target: T1, caspase-9 activation by the soluble Apaf-1 fragment; assay: Caspase-9 activation assay (fluorogenic, LEHD-AMC); format: biochemical; conditions: for Apaf-1-mediated caspase-9 activation by nucleotide with EDTA (hydrolysis blocked): 1 millimolar EDTA; for Apaf-1-mediated caspase-9 activation by nucleotide with EDTA (hydrolysis blocked) / Apaf-1-mediated caspase-9 activation by nucleotide: FIG. 6B/6C; for Apaf-1-mediated caspase-9 activation by nucleotide: Apaf-1 2 micromolar, caspase-9 0.2 micromolar, no EDTA
Procedure: A fluorogenic assay was developed to monitor caspase-9 activation by the soluble Apaf-1 fragment. […] Then, caspase-9 and Apaf-1 were added to a final volume of 200 microliter and final concentrations of 0.2 micromolar and 2 micromolar, respectively. After incubation for 5 minutes at room temperature, the caspase-9 substrate LEHD-AMC (a tetrapeptide coupled to 7-amino […]) was added to the reaction at a final concentration of 200 micromolar. The conversion of the fluorogenic substrate was then measured using a Hitachi F2500 fluorescence spectrophotometer with an excitation wavelength of 380 nanometers and a fluorescence detection wavelength of 440 nanometers.

[2] = target: T2, soluble Apaf-1 fragment (residues 1-591); assay: ATPase assay (TLC, conversion of (alpha-32P)ATP to ADP); format: biochemical
Procedure: ATPase activity was determined using a thin layer chromatography (TLC) assay designed to quantitatively measure the conversion of (alpha-^32P)ATP to ADP. Reactions were initiated by mixing the soluble Apaf-1 fragment at a final concentration of 2 micromolar with a solution containing 20 millimolar HEPES, pH 7.5, 10 millimolar DTT, 10 micromolar magnesium chloride, 0.1 micromolar (alpha-^32P)ATP, and 8 micromolar ATP. The reaction was incubated at room temperature for the indicated duration and then quenched by addition of an equal volume of developing solvent (1 molar formic acid, 0.5 molar LiCl). Samples were evaluated based on the differential mobility of ATP versus ADP on TLC using polyethyleneimine-cellulose F plates.

[3] = format: physicochemical, E. coli
Procedure: Preferably, solubility of the fragment is assessed in a lysate of a bacterial culture used to produce the fragment at a concentration of at least 1 milligram per liter of bacterial culture.
All constructs for protein expression were generated using a standard PCR-based cloning strategy, and the identity of individual clones was verified by double-stranded plasmid sequencing. A soluble Apaf-1 fragment (residues 1-591, sequence (SEQ ID NO: 1) shown in FIG. 1) was over-expressed in Escherichia coli strain BL21(DE3) using plasmid vector pET29 having the nucleotide sequence described by Jiang et al. (2000, J. Biol. Chem. 275:31199-31203) operatively ligated therein. The coding sequence included an additional sequence encoding eight amino acid residues at its carboxy-terminal end (i.e., linked to residue 591 in the translated protein). These residues (Leu-Glu-His6) included a nickel-binding hexa-histidine sequence used for metal affinity chromatographic purification of the expressed protein. Soluble Apaf-1 was purified from the cell lysate using a Ni-NTA (nitrilotriacetic acid-ligated nickel; Qiagen) chromatography column. Dithiothreitol (DTT) and ethylenediamine tetraacetic acid (EDTA) were added to the eluted fraction in final concentrations of 5 millimolar each. After incubation for 30 minutes on ice, the protein solution was applied to an anion-exchange column (Source-15Q, Pharmacia) for further purification.

Molecule	Apaf-1-mediated caspase-9 activation by nucleotide with EDTA (hydrolysis blocked) [1]	Apaf-1-mediated caspase-9 activation by nucleotide [1]	Solubility [3]	other results
CSc1nc(N)c2ncn([C@@H]3O[C@H](COP(=O)(O)OP(=O)(O)OP(=O)(O)O)[C@@H](O)[C@H]3O)c2n1 [APM, 2-methylthio-ATP]	abrogated this effect	supported Apaf-1-mediated caspase-9 activation		
Nc1ncnc2c1ncn2[C@@H]1O[C@H](COP(=O)(O)OP(=O)(O)OP(O)(O)=S)[C@@H](O)[C@H]1O [ATP-gamma-S]		unable to support caspase-9 activation		
Nc1ncnc2c1ncn2[C@@H]1O[C@H](COP(=O)(O)OP(=O)(O)OP(=O)(O)O)[C@@H](O)[C@H]1O [ATP]	completely abolished the positive effect of ATP	further drastically improved caspase-9 activity		
Nc1nc(Cl)nc2c1ncn2[C@H]1C[C@H](O)[C@@H](COP(=O)(O)OP(=O)(O)OP(=O)(O)O)O1 [Fragment 2CdATP]	loss of this response	potent activator for caspase-9 activation		optimal concentration for caspase-9 activation [1]: approximately 100 micromolar
Nc1ncnc2c1ncn2[C@H]1C[C@H](O)[C@@H](COP(=O)(O)OP(=O)(O)OP(=O)(O)O)O1 [dATP]	completely abolished caspase-9 activation			optimal concentration for caspase-9 activation [1]: 1 to 5 µM; Apaf-1-mediated activation of caspase-9 at higher concentrations ([1]; above the optimal range of 1-5 micromolar): reduced slightly; caspase-9 activation compared with ATP ([1]; nucleotide at 2 micromolar): greater activation of caspase-9 than did ATP
B1			++++	ATPase activity (appearance of ADP on TLC) ([2]; 2 micromolar fragment, magnesium present, room temperature, FIG. 6A): exhibited ATPase activity; ATPase activity on incubation with EDTA ([2]; EDTA added (magnesium removed), FIG. 6A lane 3): abrogation of the observed ATPase activity; solubility and solution behavior (in words) [3]: good solubility and solution behavior; catalytic activity of caspase-9 in the presence of Apaf-1 ([1]; absence of ATP and of the apoptosome): significantly and reproducibly elevated; also recorded: significantly improved the caspase catalytic activity
B2			−	
B3			++	
B4			+	

— patent publication US7432093B2, “Soluble, functional apoptotic protease-activating factor 1 fragments” (The Trustees of Princeton University, priority 2004, dated 2008)
